According to ChEMBL document CHEMBL5131478, “3,5-Bis(trifluoromethyl)phenylsulfonamides, a novel pancreatic cancer active lead. Investigation of the terminal aromatic moiety” (Bioorg Med Chem Lett, 2022):

What was measured:
[1] = Growth inhibition of human SJG2 cells incubated for 72 hrs by MTT assay; assay type: functional; conditions: SJ-G2
NCI-H460 = experiment: Growth inhibition of human NCI-H460 cells incubated for 72 hrs by MTT assay; assay type: functional
BE(2)-C = experiment: Growth inhibition of human BE2C cells incubated for 72 hrs by MTT assay; assay type: functional
U-87 MG = experiment: Growth inhibition of human U87 cells incubated for 72 hrs by MTT assay; assay type: functional, U-87MG ATCC
HPAC = experiment: Growth inhibition of human HPAC cells incubated for 72 hrs by MTT assay; assay type: functional
MIA PaCa-2 = experiment: Growth inhibition of human MIA PaCa-2 cells incubated for 72 hrs by MTT assay; assay type: functional
ASPC1 = experiment: Growth inhibition of human ASPC1 cells incubated for 72 hrs by MTT assay; assay type: functional
A-431 = experiment: Growth inhibition of human A-431 cells incubated for 72 hrs by MTT assay; assay type: functional
Capan-2 = experiment: Growth inhibition of human Capan-2 cells incubated for 72 hrs by MTT assay; assay type: functional
A2780 = experiment: Growth inhibition of human A2780 cells incubated for 72 hrs by MTT assay; assay type: functional
HT-29 = experiment: Growth inhibition of human HT-29 cells incubated for 72 hrs by MTT assay; assay type: functional
MCF7 = experiment: Growth inhibition of human MCF7 cells incubated for 72 hrs by MTT assay; assay type: functional
PANC-1 = experiment: Growth inhibition of human PANC-1 cells incubated for 72 hrs by MTT assay; assay type: functional
DU-145 = experiment: Growth inhibition of human DU-145 cells incubated for 72 hrs by MTT assay; assay type: functional
[2] = Growth inhibition of human MCF-10A cells incubated for 72 hrs by MTT assay; assay type: toxicity, cell-based
BXPC-3 = experiment: Growth inhibition of human BXPC-3 cells incubated for 72 hrs by MTT assay; assay type: functional
MCF-10A = experiment: Cytotoxicity against human MCF-10A cells assessed as inhibition of cell growth at 25 uM incubated for 72 hrs by MTT assay; assay type: toxicity, cell-based

| Compound | GI50 [1] [nM] | GI50 (NCI-H460) [nM] | GI50 (BE(2)-C) [nM] | GI50 (U-87 MG) [nM] | GI50 (HPAC) [nM] | GI50 (MIA PaCa-2) [nM] | GI50 (ASPC1) [nM] | GI50 (A-431) [nM] | GI50 (Capan-2) [nM] | GI50 (A2780) [nM] | GI50 (HT-29) [nM] | GI50 (MCF7) [nM] | GI50 (PANC-1) [nM] | GI50 (DU-145) [nM] | GI50 at 72 h [2] [nM] | GI50 (BXPC-3) [nM] | Activity (MCF-10A) |
| --- | --- | --- | --- | --- | --- | --- | --- | --- | --- | --- | --- | --- | --- | --- | --- | --- | --- |
| O=S(=O)(NCCCNCc1ccc(Br)cc1)c1cc(C(F)(F)F)cc(C(F)(F)F)c1 | 2400 | 2500 | 2700 | 2100 | 2900 | 2300 | 2800 | 2500 | 2000 | 2600 | 2200 | 1900 | 2200 | 2600 | 3100 | 1500 | – |
| O=S(=O)(NCCNCc1ccc(Br)cc1)c1cc(C(F)(F)F)cc(C(F)(F)F)c1 | – | – | – | – | – | – | – | – | – | – | – | – | – | – | – | – | Non-Toxic |
| O=S(=O)(NCCCNCc1ccc(-c2ccccc2)cc1)c1cc(C(F)(F)F)cc(C(F)(F)F)c1 | 2300 | 2500 | 2600 | 2200 | 2700 | 2400 | 2500 | 2600 | 2200 | 2600 | 2300 | 1700 | 2500 | 2700 | 2800 | 1700 | – |
| O=S(=O)(NCCNCc1ccc(C(F)(F)F)cc1)c1cc(C(F)(F)F)cc(C(F)(F)F)c1 | – | – | – | – | – | – | – | – | – | – | – | – | – | – | – | – | Non-Toxic |
| COc1ccc(CNCCCNS(=O)(=O)c2cc(C(F)(F)F)cc(C(F)(F)F)c2)cc1OC | 18000 | 2400 | 3600 | 3400 | 3500 | 2800 | 6400 | 7000 | 15000 | 3800 | 2700 | 1900 | 18000 | 4000 | 5300 | 13000 | – |
